Data taken from paper PMC4503722, “Novel Phenotypic Outcomes Identified for a Public Collection of Approved Drugs from a Publicly Accessible Panel of Assays” (PLoS ONE, 2015).

These compounds were tested on HCT116 cells treated with a GSK3β inhibitor (assay: cells). Conditions: Homo sapiens, HCT-116, read-out: GSK3b inh pretreated_Viability ATP HCT116.
Type: cell-based

Row | SMILES | IC50 [nM]
1 | Oc1c(I)cc(I)c2cccnc12 [Diiodohydroxyquinoline] | 66.7
2 | O=c1[nH]c(=O)n([C@H]2C[C@H](O)[C@@H](CO)O2)cc1F [Floxuridine] | 1

Each compound was assayed on HT-29 (assay: cells). Conditions: Homo sapiens, HT-29, read-out: Basal_Viability ATP HT-29.
Type: cell-based

Row | SMILES | IC50 [nM]
3 | Oc1c(I)cc(I)c2cccnc12 [Diiodohydroxyquinoline] | 705
4 | O=c1[nH]c(=O)n([C@H]2C[C@H](O)[C@@H](CO)O2)cc1F [Floxuridine] | > 20000

These compounds were tested on endothelial tube formation in co-cultures of ECFCs and ADSCs treated with VEGF (assay: cells). Conditions: Homo sapiens, read-out: Anti-Angiogenesis.
Type: cell-based, human

Row | SMILES | IC50 [nM]
5 | Oc1c(I)cc(I)c2cccnc12 [Diiodohydroxyquinoline] | 2390
6 | O=c1[nH]c(=O)n([C@H]2C[C@H](O)[C@@H](CO)O2)cc1F [Floxuridine] | 21.6

Each compound was assayed on HeLa cells (assay: cells). Conditions: Homo sapiens, HeLa, read-out: CellCycle G2/M.
Type: cell-based

Row | SMILES | EC50 [nM]
7 | Oc1c(I)cc(I)c2cccnc12 [Diiodohydroxyquinoline] | > 10000
8 | O=c1[nH]c(=O)n([C@H]2C[C@H](O)[C@@H](CO)O2)cc1F [Floxuridine] | > 10000

These compounds were tested on Colo320 (assay: cells). Conditions: Homo sapiens, COLO 320, read-out: Basal_Viability ATP Colo 320.
Type: cell-based

Row | SMILES | IC50 [nM]
9 | Oc1c(I)cc(I)c2cccnc12 [Diiodohydroxyquinoline] | 21.3
10 | O=c1[nH]c(=O)n([C@H]2C[C@H](O)[C@@H](CO)O2)cc1F [Floxuridine] | > 20000

Each compound was assayed on nuclear β-catenin in C2C12 cells (assay: cells). Conditions: Mus musculus, C2C12, read-out: Wnt Pathway.
Type: cell-based

Row | SMILES | EC50 [nM]
11 | Oc1c(I)cc(I)c2cccnc12 [Diiodohydroxyquinoline] | > 10000
12 | O=c1[nH]c(=O)n([C@H]2C[C@H](O)[C@@H](CO)O2)cc1F [Floxuridine] | > 10000

The compounds below were run on INS-1E cells (assay: cells). Conditions: Rattus norvegicus, INS-1E, read-out: Insulin Secretion.
Type: cell-based, rat

Row | SMILES | EC50 [nM]
13 | Oc1c(I)cc(I)c2cccnc12 [Diiodohydroxyquinoline] | > 10000
14 | O=c1[nH]c(=O)n([C@H]2C[C@H](O)[C@@H](CO)O2)cc1F [Floxuridine] | > 10000

Each compound was assayed against T1, hJAK2 (Homo sapiens, UniProt O60674) (assay: Cerep LANCE kinase assay hJAK2 (S1 assay 33)). Conditions: kinase assay; read-out: JAK2.
T1 construct: purchased Cerep (LANCE kinase assay platform, contract assay)
T1 sequence (O60674 whole entry): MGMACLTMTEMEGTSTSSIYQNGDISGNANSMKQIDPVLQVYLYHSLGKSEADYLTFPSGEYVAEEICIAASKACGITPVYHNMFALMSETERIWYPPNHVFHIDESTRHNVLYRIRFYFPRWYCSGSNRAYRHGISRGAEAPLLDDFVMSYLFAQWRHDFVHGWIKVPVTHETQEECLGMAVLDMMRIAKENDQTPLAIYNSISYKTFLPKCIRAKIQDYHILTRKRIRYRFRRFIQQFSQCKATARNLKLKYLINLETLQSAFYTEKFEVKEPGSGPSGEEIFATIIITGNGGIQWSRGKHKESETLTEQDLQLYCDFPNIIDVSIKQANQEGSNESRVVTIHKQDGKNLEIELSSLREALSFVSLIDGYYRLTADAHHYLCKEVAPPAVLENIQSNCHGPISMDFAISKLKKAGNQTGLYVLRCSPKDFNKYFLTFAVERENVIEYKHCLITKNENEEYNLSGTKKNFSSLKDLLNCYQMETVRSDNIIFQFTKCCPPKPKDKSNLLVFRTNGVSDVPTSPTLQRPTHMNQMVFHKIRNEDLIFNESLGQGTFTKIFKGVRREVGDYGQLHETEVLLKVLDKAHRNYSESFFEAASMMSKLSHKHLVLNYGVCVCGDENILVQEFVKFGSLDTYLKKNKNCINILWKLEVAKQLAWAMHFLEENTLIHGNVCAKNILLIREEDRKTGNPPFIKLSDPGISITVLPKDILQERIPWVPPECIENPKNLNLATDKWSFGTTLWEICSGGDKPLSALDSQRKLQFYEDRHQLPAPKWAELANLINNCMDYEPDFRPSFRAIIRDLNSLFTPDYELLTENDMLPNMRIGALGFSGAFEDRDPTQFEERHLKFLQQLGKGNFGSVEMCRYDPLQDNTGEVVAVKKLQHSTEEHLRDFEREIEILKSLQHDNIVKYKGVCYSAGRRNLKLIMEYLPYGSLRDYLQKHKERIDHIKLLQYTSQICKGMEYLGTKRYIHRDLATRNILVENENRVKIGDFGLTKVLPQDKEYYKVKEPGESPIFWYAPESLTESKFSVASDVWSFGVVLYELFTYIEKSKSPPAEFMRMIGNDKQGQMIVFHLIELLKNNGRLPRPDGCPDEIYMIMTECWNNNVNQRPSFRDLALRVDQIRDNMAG
Type: biochemical

Row | SMILES | IC50 [nM]
15 | Oc1c(I)cc(I)c2cccnc12 [Diiodohydroxyquinoline] | > 20000
16 | O=c1[nH]c(=O)n([C@H]2C[C@H](O)[C@@H](CO)O2)cc1F [Floxuridine] | > 20000

Each compound was assayed on RKO (assay: cells). Conditions: Homo sapiens, RKO, read-out: Basal_Viability ATP RKO.
Type: cell-based

Row | SMILES | IC50 [nM]
17 | Oc1c(I)cc(I)c2cccnc12 [Diiodohydroxyquinoline] | 22.7
18 | O=c1[nH]c(=O)n([C@H]2C[C@H](O)[C@@H](CO)O2)cc1F [Floxuridine] | 1

Each compound was assayed on SW480 (assay: cells). Conditions: Homo sapiens, SW480, read-out: Basal_Viability ATP SW480.
Type: cell-based

Row | SMILES | IC50 [nM]
19 | Oc1c(I)cc(I)c2cccnc12 [Diiodohydroxyquinoline] | 3.6
20 | O=c1[nH]c(=O)n([C@H]2C[C@H](O)[C@@H](CO)O2)cc1F [Floxuridine] | > 20000

The compounds below were run against T2, hGSK3b (Homo sapiens, UniProt P49841) (assay: Cerep LANCE kinase assay hGSK3b (S1 assay 34)). Conditions: kinase assay; read-out: GSK3b.
T2 construct: purchased Cerep (LANCE kinase assay platform, contract assay)
T2 sequence (P49841 whole entry): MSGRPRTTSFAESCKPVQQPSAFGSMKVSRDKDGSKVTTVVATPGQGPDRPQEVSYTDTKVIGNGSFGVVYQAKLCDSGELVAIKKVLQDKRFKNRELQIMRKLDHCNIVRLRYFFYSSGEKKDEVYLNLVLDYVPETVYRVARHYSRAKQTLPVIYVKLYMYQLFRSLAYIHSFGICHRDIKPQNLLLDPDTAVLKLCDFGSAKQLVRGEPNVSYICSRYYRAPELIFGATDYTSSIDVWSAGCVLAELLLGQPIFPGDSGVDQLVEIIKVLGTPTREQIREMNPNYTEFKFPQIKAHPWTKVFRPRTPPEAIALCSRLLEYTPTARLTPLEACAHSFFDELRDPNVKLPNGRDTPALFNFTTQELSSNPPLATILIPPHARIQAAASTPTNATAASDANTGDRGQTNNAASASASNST
Type: biochemical

Row | SMILES | IC50 [nM]
21 | Oc1c(I)cc(I)c2cccnc12 [Diiodohydroxyquinoline] | > 20000
22 | O=c1[nH]c(=O)n([C@H]2C[C@H](O)[C@@H](CO)O2)cc1F [Floxuridine] | > 20000

Each compound was assayed on HCT116 (assay: cells). Conditions: Homo sapiens, HCT-116, read-out: Basal_Viability ATP HCT116.
Type: cell-based

Row | SMILES | IC50 [nM]
23 | Oc1c(I)cc(I)c2cccnc12 [Diiodohydroxyquinoline] | 41
24 | O=c1[nH]c(=O)n([C@H]2C[C@H](O)[C@@H](CO)O2)cc1F [Floxuridine] | 1

These compounds were tested against T3, hp70S6K1 (RPS6KB1) (Homo sapiens, UniProt P23443) (assay: Cerep LANCE kinase assay hp70S6K1 (S1 assay 31)). Conditions: kinase assay; read-out: p70S6K1.
T3 construct: purchased Cerep (LANCE kinase assay platform, contract assay)
T3 sequence (P23443 whole entry): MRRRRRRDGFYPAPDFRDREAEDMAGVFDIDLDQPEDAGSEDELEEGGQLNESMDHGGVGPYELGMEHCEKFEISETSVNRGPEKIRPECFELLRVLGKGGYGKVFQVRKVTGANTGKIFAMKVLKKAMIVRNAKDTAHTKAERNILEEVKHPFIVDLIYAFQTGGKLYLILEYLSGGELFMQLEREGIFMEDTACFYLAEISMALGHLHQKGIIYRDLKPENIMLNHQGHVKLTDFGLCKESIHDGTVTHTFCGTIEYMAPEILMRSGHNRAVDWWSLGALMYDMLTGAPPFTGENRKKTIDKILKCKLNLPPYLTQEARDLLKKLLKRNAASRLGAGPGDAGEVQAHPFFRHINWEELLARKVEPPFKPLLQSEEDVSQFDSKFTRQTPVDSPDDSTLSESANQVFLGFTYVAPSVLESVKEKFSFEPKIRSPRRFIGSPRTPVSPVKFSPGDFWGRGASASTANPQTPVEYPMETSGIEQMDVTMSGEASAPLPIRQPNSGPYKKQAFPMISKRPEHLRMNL
Type: biochemical

Row | SMILES | IC50 [nM]
25 | Oc1c(I)cc(I)c2cccnc12 [Diiodohydroxyquinoline] | > 20000
26 | O=c1[nH]c(=O)n([C@H]2C[C@H](O)[C@@H](CO)O2)cc1F [Floxuridine] | > 20000

These compounds were tested on SNU-C1 (assay: cells). Conditions: Homo sapiens, SNU-C1, read-out: Basal_Viability ATP SNU-C1.
Type: cell-based

Row | SMILES | IC50 [nM]
27 | Oc1c(I)cc(I)c2cccnc12 [Diiodohydroxyquinoline] | 38.7
28 | O=c1[nH]c(=O)n([C@H]2C[C@H](O)[C@@H](CO)O2)cc1F [Floxuridine] | > 20000

Each compound was assayed on NCI-H716 cells (assay: cells). Conditions: Homo sapiens, NCI-H716, read-out: GLP 1 Secretion.
Type: cell-based, Human

Row | SMILES | EC50 [nM]
29 | Oc1c(I)cc(I)c2cccnc12 [Diiodohydroxyquinoline] | > 10000
30 | O=c1[nH]c(=O)n([C@H]2C[C@H](O)[C@@H](CO)O2)cc1F [Floxuridine] | > 10000

The compounds below were run against T4, hKDR (Homo sapiens, UniProt P35968) (assay: Cerep LANCE kinase assay hKDR (S1 assay 32)). Conditions: kinase assay; read-out: KDR.
T4 construct: purchased Cerep (LANCE kinase assay platform, contract assay)
T4 sequence (P35968 20-1356): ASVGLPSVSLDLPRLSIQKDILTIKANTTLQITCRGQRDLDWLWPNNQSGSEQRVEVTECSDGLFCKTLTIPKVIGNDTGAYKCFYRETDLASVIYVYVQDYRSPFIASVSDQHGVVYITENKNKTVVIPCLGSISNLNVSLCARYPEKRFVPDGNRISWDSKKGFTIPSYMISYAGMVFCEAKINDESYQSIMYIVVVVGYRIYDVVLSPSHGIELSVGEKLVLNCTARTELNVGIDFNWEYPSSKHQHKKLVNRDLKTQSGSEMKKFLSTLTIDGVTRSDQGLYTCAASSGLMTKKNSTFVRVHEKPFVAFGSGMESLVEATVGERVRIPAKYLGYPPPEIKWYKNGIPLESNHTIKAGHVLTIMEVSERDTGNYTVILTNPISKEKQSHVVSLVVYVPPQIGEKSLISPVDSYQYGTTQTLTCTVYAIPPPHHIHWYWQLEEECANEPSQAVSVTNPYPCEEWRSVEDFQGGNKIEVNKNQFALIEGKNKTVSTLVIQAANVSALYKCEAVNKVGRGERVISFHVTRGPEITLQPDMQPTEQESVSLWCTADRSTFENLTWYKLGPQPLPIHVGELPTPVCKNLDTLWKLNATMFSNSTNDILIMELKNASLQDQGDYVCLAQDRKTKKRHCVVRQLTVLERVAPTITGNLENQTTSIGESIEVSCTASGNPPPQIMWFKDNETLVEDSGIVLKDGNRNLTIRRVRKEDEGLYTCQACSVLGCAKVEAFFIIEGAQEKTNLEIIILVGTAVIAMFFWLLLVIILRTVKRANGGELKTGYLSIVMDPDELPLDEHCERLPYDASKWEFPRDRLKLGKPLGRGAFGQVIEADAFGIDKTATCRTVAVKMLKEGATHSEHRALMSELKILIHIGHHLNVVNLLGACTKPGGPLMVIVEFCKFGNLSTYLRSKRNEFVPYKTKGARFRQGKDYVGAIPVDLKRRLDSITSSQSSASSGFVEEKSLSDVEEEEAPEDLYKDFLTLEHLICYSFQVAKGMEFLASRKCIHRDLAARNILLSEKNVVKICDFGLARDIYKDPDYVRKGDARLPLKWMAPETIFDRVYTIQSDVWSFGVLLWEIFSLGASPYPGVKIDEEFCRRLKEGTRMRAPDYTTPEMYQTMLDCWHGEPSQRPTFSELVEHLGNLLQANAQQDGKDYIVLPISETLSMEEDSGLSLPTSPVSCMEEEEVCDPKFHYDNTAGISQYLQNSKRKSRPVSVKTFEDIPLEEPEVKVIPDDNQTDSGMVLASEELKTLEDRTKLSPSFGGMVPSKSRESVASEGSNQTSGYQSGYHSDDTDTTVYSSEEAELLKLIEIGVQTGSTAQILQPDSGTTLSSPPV
Type: biochemical

Row | SMILES | IC50 [nM]
31 | Oc1c(I)cc(I)c2cccnc12 [Diiodohydroxyquinoline] | > 20000
32 | O=c1[nH]c(=O)n([C@H]2C[C@H](O)[C@@H](CO)O2)cc1F [Floxuridine] | > 20000

These compounds were tested against T5, hFLT3 (Homo sapiens, UniProt P36888) (assay: Cerep LANCE kinase assay hFLT3 (S1 assay 35)). Conditions: kinase assay; read-out: FLT3.
T5 construct: purchased Cerep (LANCE kinase assay platform, contract assay)
T5 sequence (P36888 27-993): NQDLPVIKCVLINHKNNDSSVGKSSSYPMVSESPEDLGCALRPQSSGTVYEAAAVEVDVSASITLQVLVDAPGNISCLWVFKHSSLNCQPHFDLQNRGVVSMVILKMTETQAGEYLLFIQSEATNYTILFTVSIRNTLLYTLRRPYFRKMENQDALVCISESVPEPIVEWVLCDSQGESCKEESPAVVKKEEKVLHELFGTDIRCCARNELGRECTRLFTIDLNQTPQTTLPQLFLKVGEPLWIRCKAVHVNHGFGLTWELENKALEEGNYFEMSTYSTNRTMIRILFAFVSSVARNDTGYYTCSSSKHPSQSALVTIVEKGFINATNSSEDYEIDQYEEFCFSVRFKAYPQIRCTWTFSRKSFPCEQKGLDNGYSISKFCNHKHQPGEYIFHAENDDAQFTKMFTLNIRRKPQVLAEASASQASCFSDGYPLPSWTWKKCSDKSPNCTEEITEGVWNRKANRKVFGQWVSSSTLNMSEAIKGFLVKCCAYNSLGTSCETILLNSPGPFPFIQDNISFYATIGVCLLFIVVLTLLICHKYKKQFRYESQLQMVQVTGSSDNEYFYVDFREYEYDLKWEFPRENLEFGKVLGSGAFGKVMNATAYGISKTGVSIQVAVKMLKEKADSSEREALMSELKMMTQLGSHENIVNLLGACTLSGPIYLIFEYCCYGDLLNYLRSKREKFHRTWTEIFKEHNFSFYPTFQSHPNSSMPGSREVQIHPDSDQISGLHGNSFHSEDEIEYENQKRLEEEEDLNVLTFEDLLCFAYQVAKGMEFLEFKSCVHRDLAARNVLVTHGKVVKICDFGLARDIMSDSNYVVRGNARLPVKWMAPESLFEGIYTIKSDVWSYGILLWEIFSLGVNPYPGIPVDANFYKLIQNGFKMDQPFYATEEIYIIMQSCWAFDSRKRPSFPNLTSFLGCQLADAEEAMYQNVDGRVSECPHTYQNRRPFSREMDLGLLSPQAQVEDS
Type: biochemical

Row | SMILES | IC50 [nM]
33 | Oc1c(I)cc(I)c2cccnc12 [Diiodohydroxyquinoline] | > 20000
34 | O=c1[nH]c(=O)n([C@H]2C[C@H](O)[C@@H](CO)O2)cc1F [Floxuridine] | > 20000

The compounds below were run on DLD-1 (assay: cells). Conditions: Homo sapiens, DLD-1, read-out: Basal_Viability ATP DLD-1.
Type: cell-based

Row | SMILES | IC50 [nM]
35 | Oc1c(I)cc(I)c2cccnc12 [Diiodohydroxyquinoline] | 17.8
36 | O=c1[nH]c(=O)n([C@H]2C[C@H](O)[C@@H](CO)O2)cc1F [Floxuridine] | 1
